In patent EP2818472A1, “Imidazo[4,5-c]pyridine and pyrrolo[3,2-c]pyridine compounds as G-protein-coupled receptor kinase 5 (GRK5) modulators” (Max-Planck-Gesellschaft zur Förderung der Wissenschaften …, priority 2013, dated 2014):

Each compound was assayed on beta-TC6 cells (assay: Insulin HTRF assay (relative activity Ar) in beta-TC6 cells). Details: Mus musculus, Beta-TC6, 4 h, insulin HTRF, supernatant of beta-TC6 cells, incubation with test compound at 37°C for 2, 3, 4h; read-out: Ar (relative activity).
Assay type: cell-based, mouse
From the text: For further screening of compounds derived from compounds described above for their ability to regulate insulin release an insulin HTRF® (Homogeneous Time-Resolved Fluorescence; Cisbio International, France) was used. This assay is based on two antibodies against insulin binding to different epitopes of insulin. One of these antibodies is coupled to Europium (Ab-Eu-Cryptate) and the other one to the fluorophore XL665 (Ab-XL665). If the insulin is secreted into the supernatant of cell culture, both antibodies can bind to insulin and come therefore into close proximity, which allows upon excitation that energy transfer between (FRET) the long-life fluorescent donor Europium (cryptate) and the acceptors XL665. FRET increases proportionally with insulin concentration.
The automated assay protocol is as follows: • On day 1, 15k beta-TC6 cells per well were seeded for 24 or 48 h in 50 µL complete medium. On day 2 or respective on day 3, the medium is removed and cells are washed with 60 µL 1xPBS and 20 µL induction buffer is added using BioTek washer. Subsequently, 10 µL Sunitininb (5 -µM f.c.) or the test compound in induction buffer; 0.5% f.c. DMSO (CyBi-well) is transferred to the cells. The cells are then incubated at 37°C for 2, 3, 4h.
First 10 µL supernatant is transferred from the cell plates in HTRF plates (CyBi-well). 10 µL of 0, 1, 2, and 4 ng/ml insulin standard controls in assay medium is used as a control. To each well 10 µL of combined 1:25 Ab-XL665 (Acc) and 1:20 Ab-Eu-Cryptate (WellMate) are added and incubated for 120 min at RT in the dark. Finally HTRF is measured on ViewLux ultra high throughput microplate imager (PerkinElmer).
The evaluation software DataFactoty derives relative activities Ar according to the following equation: Ar = (V-R(0%control))/(R(100%control) -R0%control)) × 100 [formula]
The activity of the compounds was classified according to their Ar (relative activity) into the following ranges: […]
For `COc1cc(Nc2cc3c(cn2)ncn3C)cc(OC)c1OC` [Compound 725, 1-methyl-N-(3,4,5-trimethoxyphenyl)imidazo[4,5-c]pyridin-6-amine], the Emax was 30 to 50%.
For `CC(=O)Nc1cccc(Nc2nccc3c2cc(-c2cccc(F)c2)n3C)c1` [Compound 210, N-[3-[[2-(3-fluorophenyl)-1-methyl-pyrrolo[3,2-c]pyridin-4-yl]amino]phenyl]acetamide], the Emax was 30 to 50%.
With `CNc1nc2cnc(Nc3cccc(C)c3)cc2n1Cc1ccc(OC)c(OC)c1` [Compound 671, 1-[(3,4-dimethoxyphenyl)methyl]-N2-methyl-N6-(m-tolyl)imidazo[4,5-c]pyridine-2,6-diamine] the Emax was 30 to 50%.
`CN(C)c1cccc(-c2cc3c(cn2)nc(NCC2CC2)n3C)c1` [Compound 828, N-(cyclopropylmethyl)-6-[3-(dimethylamino)phenyl]-1-methyl-imidazo[4,5-c]pyridin-2-amine] showed an Emax of 30 to 50%.
Work on `CC(=O)Nc1ccc(Nc2cc3c(cn2)ncn3Cc2ccco2)cc1` [Compound 692, N-[4-[[1-(2-furylmethyl)imidazo[4,5-c]pyridin-6-yl]amino]phenyl]acetamide] yielded an Emax of 30 to 50%.
Compound `Oc1cccc(Nc2cc3[nH]c(-c4cccc(F)c4)cc3cn2)c1` [Compound 10, 3-[[2-(3-fluorophenyl)-1H-pyrrolo[3,2-c]pyridin-6-yl]amino]phenol] has an Emax of 50 to 100%.
Compound `CN(C)c1cccc(Nc2nccc3[nH]c(-c4ccccc4)nc23)c1` [Compound 331, N1,N1-dimethyl-N3-(2-phenyl-1H-imidazo[4,5-c]pyridin-4-yl)benzene-1,3-diamine] has an Emax of 50 to 100%.
For `CNc1nc2cnc(Nc3ccc4c(c3)OCO4)cc2n1CCOC` [Compound 497, N6-(1,3-benzodioxol-5-yl)-1-(2-methoxyethyl)-N2-methyl-imidazo[4,5-c]pyridine-2,6-diamine], the Emax was 50 to 100%.
With `Cn1c(-c2ccsc2)cc2c(Nc3cccnc3)nccc21` [Compound 276, 1-methyl-N-(3-pyridyl)-2-(3-thienyl)pyrrolo[3,2-c]pyridin-4-amine] the Emax was 30 to 50%.
In the case of `COc1cccc(-c2cc3c(Nc4ccccc4)nccc3[nH]2)c1` [Compound 309, 2-(3-methoxyphenyl)-N-phenyl-1H-pyrrolo[3,2-c]pyridin-4-amine], the Emax is reported as 30 to 50%.
`COc1cc(-c2cc3c(cn2)nc(NCc2cccc(C)c2)n3C)ccc1O` [Compound 808, 2-methoxy-4-[1-methyl-2-(m-tolylmethylamino)imidazo[4,5-c]pyridin-6-yl]phenol] showed an Emax of 30 to 50%.
`Cc1cccc(CNc2nc3cnc(Nc4cccc(O)c4)cc3n2C)c1` [Compound 585, 3-[[1-methyl-2-(m-tolylmethylamino)imidazo[4,5-c]pyridin-6-yl]amino]phenol] gave an Emax of 50 to 100%.
`COc1ccc(-c2nc3cnc(Nc4ccc5c(c4)OCO5)cc3n2C)cc1OC` [Compound 722, N-(1,3-benzodioxol-5-yl)-2-(3,4-dimethoxyphenyl)-1-methyl-imidazo[4,5-c]pyridin-6-amine] was tested, and the Emax was 30 to 50%.
With `COc1ccccc1-c1cc2c(Nc3ccc(S(C)(=O)=O)cc3)nccc2[nH]1` [Compound 300, 2-(2-methoxyphenyl)-N-(4-methylsulfonylphenyl)-1H-pyrrolo[3,2-c]pyridin-4-amine] the Emax was 50 to 100%.
Work on `CNc1nc2cnc(Nc3cccc(NC(C)=O)c3)cc2n1Cc1ccccc1` [Compound 538, N-[3-[[1-benzyl-2-(methylamino)imidazo[4,5-c]pyridin-6-yl]amino]phenyl]acetamide] yielded an Emax of 50 to 100%.
In the case of `CNc1nc2cnc(Nc3ccc(Oc4ccccc4)cc3)cc2n1C` [Compound 749, N2,1-dimethyl-N6-(4-phenoxyphenyl)imidazo[4,5-c]pyridine-2,6-diamine], the Emax is reported as 0 to 30%.
For `Cn1cc(-c2cc3cnc(Nc4ccncn4)cc3n2C)cn1` [Compound 147, 1-methyl-2-(1-methylpyrazol-4-yl)-N-pyrimidin-4-yl-pyrrolo[3,2-c]pyridin-6-amine], the Emax was 50 to 100%.
`CN(C)c1cccc(Nc2nccc3[nH]c(-c4ccncc4)nc23)c1` [Compound 426, N1,N1-dimethyl-N3-[2-(4-pyridyl)-1H-imidazo[4,5-c]pyridin-4-yl]benzene-1,3-diamine] showed an Emax of 50 to 100%.
Compound `COc1ccc(Nc2cc3c(cn2)nc(NCc2ccc(OC)c(OC)c2)n3C)c(OC)c1` [Compound 602, N6-(2,4-dimethoxyphenyl)-N2-[(3,4-dimethoxyphenyl)methyl]-1-methyl-imidazo[4,5-c]pyridine-2,6-diamine] has an Emax of 30 to 50%.
In the case of `Cn1c(NCC2CC2)nc2cnc(Nc3ccc4c(c3)OCO4)cc21` [Compound 598, N6-(1,3-benzodioxol-5-yl)-N2-(cyclopropylmethyl)-1-methyl-imidazo[4,5-c]pyridine-2,6-diamine], the Emax is reported as 30 to 50%.
With `CC(=O)Nc1ccc(Nc2nccc3c2cc(-c2ccsc2)n3C)cc1` [Compound 270, N-[4-[[1-methyl-2-(3-thienyl)pyrrolo[3,2-c]pyridin-4-yl]amino]phenyl]acetamide] the Emax was 50 to 100%.
Work on `COc1ccc(Nc2nccc3[nH]c(-c4cccc(C)c4)nc23)cc1OC` [Compound 436, N-(3,4-dimethoxyphenyl)-2-(m-tolyl)-1H-imidazo[4,5-c]pyridin-4-amine] yielded an Emax of 50 to 100%.
Work on `COCCNC(=O)c1cccc(-c2nc3c(Nc4cccc(OC)c4)nccc3[nH]2)c1` [Compound 386, 3-[4-(3-methoxyanilino)-1H-imidazo[4,5-c]pyridin-2-yl]-N-(2-methoxyethyl)benzamide] yielded an Emax of 50 to 100%.
`CNc1nc2cnc(Nc3cccc(NC(C)=O)c3)cc2n1-c1cc(OC)c(OC)c(OC)c1` [Compound 493, N-[3-[[2-(methylamino)-1-(3,4,5-trimethoxyphenyl)imidazo[4,5-c]pyridin-6-yl]amino]phenyl]acetamide] gave an Emax of 50 to 100%.
With `CNc1nc2cnc(Nc3cccc(C)c3)cc2n1CCN1CCOCC1` [Compound 556, N2-methyl-1-(2-morpholinoethyl)-N6-(m-tolyl)imidazo[4,5-c]pyridine-2,6-diamine] the Emax was 30 to 50%.
For `CN(C)C(=O)c1ccc(Nc2nccc3[nH]c(-c4ccccc4)cc23)cc1` [Compound 322, N,N-dimethyl-4-[(2-phenyl-1 H-pyrrolo[3,2-c]pyridin-4-yl)amino]benzamide], the Emax was > 100%.
Work on `CNc1nc2cnc(Nc3ccccn3)cc2n1-c1cccc(C(F)(F)F)c1` [Compound 548, N2-methyl-N6-(2-pyridyl)-1-[3-(trifluoromethyl)phenyl]imidazo[4,5-c]pyridine-2,6-diamine] yielded an Emax of 30 to 50%.
In the case of `CC(=O)N(C)c1cccc(-c2cc3c(Nc4ccc(OC(F)(F)F)cc4)nccc3n2C)c1` [Compound 248, N-methyl-N-[3-[1-methyl-4-[4-(trifluoromethoxy)anilino]pyrrolo[3,2-c]pyridin-2-yl]phenyl]acetamide], the Emax is reported as 0 to 30%.
`Cc1ccc(-c2nc3c(Nc4cccc(NS(C)(=O)=O)c4)nccc3[nH]2)cc1` [Compound 384, N-[3-[[2-(p-tolyl)-1H-imidazo[4,5-c]pyridin-4-yl]amino]phenyl]methanesulfonamide] showed an Emax of 30 to 50%.
Compound `COc1cccc(Nc2nccc3[nH]c(-c4cccc(OC)c4)nc23)c1` [Compound 368, N,2-bis(3-methoxyphenyl)-1H-imidazo[4,5-c]pyridin-4-amine] has an Emax of 30 to 50%.
With `Cn1c(-c2cccc(Cl)c2)cc2c(N3CCOCC3)nccc21` [Compound 195, 4-[2-(3-chlorophenyl)-1-methyl-pyrrolo[3,2-c]pyridin-4-yl]morpholine] the Emax was 30 to 50%.
Compound `CN(C)C(=O)c1ccc(-c2cc3cnc(Nc4ccc(S(C)(=O)=O)cc4)cc3[nH]2)cc1` [Compound 43, N,N-dimethyl-4-[6-(4-methylsulfonylanilino)-1H-pyrrolo[3,2-c]pyridin-2-yl]benzamide] has an Emax of 50 to 100%.
For `COc1cccc(-c2cc3c(Nc4cccc(S(C)(=O)=O)c4)nccc3[nH]2)c1` [Compound 311, 2-(3-methoxyphenyl)-N-(3-methylsulfonylphenyl)-1H-pyrrolo[3,2-c]pyridin-4-amine], the Emax was 50 to 100%.
`CNc1nc2cnc(Nc3ccc(OC)c(OC)c3)cc2n1Cc1ccco1` [Compound 520, N6-(3,4-dimethoxyphenyl)-1-(2-furylmethyl)-N2-methyl-imidazo[4,5-c]pyridine-2,6-diamine] showed an Emax of 50 to 100%.
`COc1ccc(CNc2nc3cnc(Nc4cc(OC)c(OC)c(OC)c4)cc3n2C)cc1OC` [Compound 599, N2-[(3,4-dimethoxyphenyl)methyl]-1-methyl-N6-(3,4,5-trimethoxyphenyl)imidazo[4,5-c]pyridine-2,6-diamine] gave an Emax of 50 to 100%.

Same assay, conditions: insulin HTRF, supernatant of beta-TC6 cells, incubation with test compound at 37°C for 2, 3, 4h
For `CNc1nc2cnc(-c3ccc(CO)cc3)cc2n1-c1ccccc1` [Compound 510, [4-[2-(methylamino)-1-phenyl-imidazo[4,5-c]pyridin-6-yl]phenyl]methanol], the “Ar (relative activity)” value was “++ (30 % ≤ Ar < 50 %)”.
`CNc1nc2cnc(-c3ccc(N(C)C)cc3)cc2n1-c1ccccc1` [Compound 781, 6-(4-dimethylaminophenyl)-N-methyl-1-phenyl-imidazo[4,5-c]pyridin-2-amine] was tested, and the “Ar (relative activity)” value was “+++ (50 % ≤ Ar < 100 %)”.
